Assay results published in ChEMBL document CHEMBL1201862, “PubChem BioAssay data set” (2004).
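Test compounds were applied to cells in 96-well plates for 48 hours at 5 doses. GI50 marks 50% less growth.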 The source made the active and inactive calls. Cut-off read from the data, not from the text of the source: active = GI50 up to about 1.1 µM and inactive = higher.

Key:
Test in all cases: NCI-60 cell line screen, 48 h
RPMI-8226 = system: RPMI-8226
UACC-62 = system: UACC-62
HCT-116 = system: HCT-116
SN12C = system: SN12C
NCI-H460 = system: NCI-H460
DLD-1 = system: DLD-1
IGROV-1 = system: IGROV-1
DMS-114 = system: DMS-114
786-0 = system: 786-0
CCRF-CEM = system: CCRF-CEM
MOLT-4 = system: MOLT-4
SR = system: SR
ACHN = system: ACHN
HOP-62 = system: HOP-62
CAKI-1 = system: CAKI-1
NCI-H226 = system: NCI-H226
Malme-3M = system: Malme-3M
K562 = system: K562
M19-MEL = system: M19-MEL
SF-539 = system: SF-539
UO-31 = system: UO-31
SF-268 = system: SF-268
COLO 205 = system: COLO 205
SK-OV-3 = system: SK-OV-3
OVCAR-4 = system: OVCAR-4
SK-MEL-28 = system: SK-MEL-28
SNB-75 = system: SNB-75
HL-60 = system: HL-60
NCI-H522 = system: NCI-H522
HCC 2998 = system: HCC 2998
NCI-H23 = system: NCI-H23
SNB-78 = system: SNB-78
HOP-92 = system: HOP-92
SK-MEL-2 = system: SK-MEL-2
LXFL 529 = system: LXFL 529
DMS-273 = system: DMS-273
M14 = system: M14
EKVX = system: EKVX
LOX IMVI = system: LOX IMVI
HCT-15 = system: HCT-15
KM12 = system: KM12
OVCAR-3 = system: OVCAR-3
OVCAR-5 = system: OVCAR-5
OVCAR-8 = system: OVCAR-8
U-251 = system: U-251
KM-20L2 = system: KM-20L2
A549 = system: A549
SF-295 = system: SF-295
SK-MEL-5 = system: SK-MEL-5
TK-10 = system: TK-10
UACC-257 = system: UACC-257
SNB-19 = system: SNB-19
SW-620 = system: SW-620
HT-29 = system: HT-29
A498 = system: A498
RXF 393 = system: RXF 393

`CCCNC1CC(n2cc(C)c(=O)[nH]c2=O)OC1CO` (centres undefined) was tested, and the GI50 (RPMI-8226) was > 100 µM (inactive), the GI50 (UACC-62) was > 100 µM (inactive) and the GI50 (HCT-116) was > 100 µM (inactive). For the same compound, the GI50 (SN12C) was > 100 µM (inactive), the GI50 (NCI-H460) was > 100 µM (inactive) and the GI50 (DLD-1) was > 100 µM (inactive). For the same compound, the GI50 (IGROV-1) was > 100 µM (inactive), the GI50 (DMS-114) was > 100 µM (inactive) and the GI50 (786-0) was > 100 µM (inactive). For the same compound, the GI50 (CCRF-CEM) was > 100 µM (inactive), the GI50 (MOLT-4) was > 100 µM (inactive) and the GI50 (SR) was > 100 µM (inactive). The GI50 (ACHN) was > 100 µM (inactive), the GI50 (HOP-62) was > 100 µM (inactive) and the GI50 (CAKI-1) was > 100 µM (inactive). For the same compound, the GI50 (NCI-H226) was > 100 µM (inactive), the GI50 (Malme-3M) was > 100 µM (inactive) and the GI50 (K562) was > 100 µM (inactive). The GI50 (M19-MEL) was > 100 µM (inactive), the GI50 (SF-539) was > 100 µM (inactive) and the GI50 (UO-31) was > 100 µM (inactive). The GI50 (SF-268) was > 100 µM (inactive), the GI50 (COLO 205) was > 100 µM (inactive) and the GI50 (SK-OV-3) was > 100 µM (inactive). The GI50 (OVCAR-4) was > 100 µM (inactive), the GI50 (SK-MEL-28) was > 100 µM (inactive) and the GI50 (SNB-75) was > 100 µM (inactive). For the same compound, the GI50 (HL-60) was > 100 µM (inactive), the GI50 (NCI-H522) was > 100 µM (inactive) and the GI50 (HCC 2998) was > 100 µM (inactive). The GI50 (NCI-H23) was > 100 µM (inactive), the GI50 (SNB-78) was > 100 µM (inactive) and the GI50 (HOP-92) was > 100 µM (inactive). The GI50 (SK-MEL-2) was > 100 µM (inactive), the GI50 (LXFL 529) was > 100 µM (inactive) and the GI50 (DMS-273) was > 100 µM (inactive). For the same compound, the GI50 (M14) was > 100 µM (inactive).

With `CCOC(=O)/C(=C/c1ccc(C(=O)OC)cc1)N(CC)CC` the GI50 (RPMI-8226) was 42.5 µM (inactive), the GI50 (UACC-62) was 53.5 µM (inactive) and the GI50 (HCT-116) was 37.2 µM (inactive). The GI50 (SN12C) was 70.8 µM (inactive), the GI50 (EKVX) was 35.4 µM (inactive) and the GI50 (IGROV-1) was > 100 µM (inactive). The GI50 (DMS-114) was 32.3 µM (inactive), the GI50 (786-0) was 41 µM (inactive) and the GI50 (LOX IMVI) was 63.2 µM (inactive). The GI50 (CCRF-CEM) was 30.6 µM (inactive), the GI50 (HCT-15) was 33.3 µM and the GI50 (KM12) was 41.3 µM (inactive). For the same compound, the GI50 (OVCAR-3) was 22.4 µM (inactive), the GI50 (MOLT-4) was 29.1 µM (inactive) and the GI50 (SR) was 47.9 µM (inactive). The GI50 (OVCAR-5) was > 100 µM (inactive), the GI50 (ACHN) was 60.5 µM (inactive) and the GI50 (HOP-62) was 51.6 µM (inactive). For the same compound, the GI50 (CAKI-1) was 41.6 µM (inactive), the GI50 (NCI-H226) was 35.1 µM (inactive) and the GI50 (Malme-3M) was 90.4 µM (inactive). The GI50 (OVCAR-8) was 63 µM (inactive), the GI50 (U-251) was 42 µM (inactive) and the GI50 (K562) was 26.2 µM (inactive). For the same compound, the GI50 (M19-MEL) was 51.1 µM (inactive), the GI50 (SF-539) was 25.3 µM (inactive) and the GI50 (UO-31) was 37.2 µM (inactive). For the same compound, the GI50 (KM-20L2) was 31.2 µM (inactive), the GI50 (SF-268) was 40.1 µM (inactive) and the GI50 (COLO 205) was 70.1 µM (inactive). For the same compound, the GI50 (SK-OV-3) was 50.5 µM (inactive), the GI50 (OVCAR-4) was 48.2 µM (inactive) and the GI50 (SK-MEL-28) was > 100 µM (inactive). The GI50 (A549) was 24.5 µM (inactive), the GI50 (SF-295) was > 10 µM (inactive) and the GI50 (SK-MEL-5) was 37.7 µM (inactive). For the same compound, the GI50 (HL-60) was 27.4 µM (inactive), the GI50 (TK-10) was 71.6 µM (inactive) and the GI50 (NCI-H522) was 37.8 µM (inactive). For the same compound, the GI50 (HCC 2998) was 99.5 µM (inactive), the GI50 (NCI-H23) was 36.6 µM (inactive) and the GI50 (UACC-257) was 57.3 µM (inactive). The GI50 (SNB-78) was 24.4 µM (inactive), the GI50 (SNB-19) was 54.5 µM (inactive) and the GI50 (HOP-92) was 49.9 µM (inactive). The GI50 (SK-MEL-2) was 44.9 µM (inactive), the GI50 (LXFL 529) was 50.6 µM (inactive) and the GI50 (SW-620) was 35.3 µM (inactive). For the same compound, the GI50 (M14) was 40.2 µM (inactive).

In the case of `O=C1c2ccc(O)c(O)c2C(=O)c2c(O)ccc(O)c21` [QUINALIZARIN], the GI50 (RPMI-8226) is reported as 28.2 µM (inactive), the GI50 (UACC-62) is reported as 21.4 µM (inactive) and the GI50 (HCT-116) is reported as 20.6 µM (inactive). For the same compound, the GI50 (SN12C) was 24 µM (inactive), the GI50 (EKVX) was 26.9 µM (inactive) and the GI50 (HT-29) was 35.2 µM (inactive). For the same compound, the GI50 (NCI-H460) was 21.2 µM (inactive), the GI50 (DLD-1) was 32.5 µM (inactive) and the GI50 (A498) was 26.3 µM (inactive). The GI50 (IGROV-1) was 38.4 µM (inactive), the GI50 (DMS-114) was 15.9 µM (inactive) and the GI50 (786-0) was 26.3 µM (inactive). For the same compound, the GI50 (LOX IMVI) was 18.2 µM (inactive), the GI50 (CCRF-CEM) was 20.2 µM (inactive) and the GI50 (HCT-15) was 25.7 µM. The GI50 (KM12) was 30.9 µM (inactive), the GI50 (OVCAR-3) was 20.3 µM (inactive) and the GI50 (MOLT-4) was 23.1 µM (inactive). The GI50 (SR) was 26.5 µM (inactive), the GI50 (OVCAR-5) was 28.4 µM (inactive) and the GI50 (ACHN) was 23 µM (inactive). The GI50 (HOP-62) was 26.8 µM (inactive), the GI50 (CAKI-1) was 6.05 µM (inactive) and the GI50 (NCI-H226) was 22 µM (inactive). For the same compound, the GI50 (OVCAR-8) was 28.1 µM (inactive), the GI50 (U-251) was 34.2 µM (inactive) and the GI50 (K562) was 26.5 µM (inactive). For the same compound, the GI50 (M19-MEL) was 33.9 µM (inactive), the GI50 (SF-539) was 21.4 µM (inactive) and the GI50 (UO-31) was 21.3 µM (inactive). For the same compound, the GI50 (KM-20L2) was 25.4 µM (inactive), the GI50 (SF-268) was 26.6 µM (inactive) and the GI50 (COLO 205) was 22.2 µM (inactive). The GI50 (SK-OV-3) was 29.7 µM (inactive), the GI50 (OVCAR-4) was 2.1 µM (inactive) and the GI50 (SK-MEL-28) was 56 µM (inactive). For the same compound, the GI50 (A549) was 21.1 µM (inactive), the GI50 (SF-295) was 27.1 µM (inactive) and the GI50 (SNB-75) was > 10 µM (inactive). The GI50 (RXF 393) was 26.1 µM (inactive), the GI50 (TK-10) was 33.8 µM (inactive) and the GI50 (NCI-H522) was 1.45 µM (inactive). For the same compound, the GI50 (HCC 2998) was 23.3 µM (inactive), the GI50 (NCI-H23) was 31.6 µM (inactive) and the GI50 (UACC-257) was 20.5 µM (inactive). For the same compound, the GI50 (SNB-78) was 41.3 µM (inactive), the GI50 (SNB-19) was 29 µM (inactive) and the GI50 (HOP-92) was 25.4 µM (inactive). The GI50 (SK-MEL-2) was 25.7 µM (inactive), the GI50 (LXFL 529) was 27.5 µM (inactive) and the GI50 (DMS-273) was 25.2 µM (inactive). The GI50 (SW-620) was 28.2 µM (inactive) and the GI50 (M14) was 21.5 µM (inactive).
